Results reported in patent publication EP4772505A1, “COMPOUND FOR DEGRADING ANDROGEN RECEPTOR AND MEDICAL USE THEREOF” (Ubix Therapeutics, Inc., priority 2023, dated 2025).

target: T1, Androgen Receptor (AR) (Homo sapiens, UniProt P10275); experiment: Pharmacodynamic efficacy: AR degradation in tumor of VCaP xenograft model after oral administration; assay type: in vivo, CB17/SCID mice; set-up: After sacrifice, tumor tissue was collected, washed in PBS, and stored at -80°C; from tissue; host or cells: VCaP xenograft tumour from CB17/SCID mice; details: 10 mg/kg orally once daily for three days, tumor collected 6 hours after final administration
T1 sequence (P10275 1-920): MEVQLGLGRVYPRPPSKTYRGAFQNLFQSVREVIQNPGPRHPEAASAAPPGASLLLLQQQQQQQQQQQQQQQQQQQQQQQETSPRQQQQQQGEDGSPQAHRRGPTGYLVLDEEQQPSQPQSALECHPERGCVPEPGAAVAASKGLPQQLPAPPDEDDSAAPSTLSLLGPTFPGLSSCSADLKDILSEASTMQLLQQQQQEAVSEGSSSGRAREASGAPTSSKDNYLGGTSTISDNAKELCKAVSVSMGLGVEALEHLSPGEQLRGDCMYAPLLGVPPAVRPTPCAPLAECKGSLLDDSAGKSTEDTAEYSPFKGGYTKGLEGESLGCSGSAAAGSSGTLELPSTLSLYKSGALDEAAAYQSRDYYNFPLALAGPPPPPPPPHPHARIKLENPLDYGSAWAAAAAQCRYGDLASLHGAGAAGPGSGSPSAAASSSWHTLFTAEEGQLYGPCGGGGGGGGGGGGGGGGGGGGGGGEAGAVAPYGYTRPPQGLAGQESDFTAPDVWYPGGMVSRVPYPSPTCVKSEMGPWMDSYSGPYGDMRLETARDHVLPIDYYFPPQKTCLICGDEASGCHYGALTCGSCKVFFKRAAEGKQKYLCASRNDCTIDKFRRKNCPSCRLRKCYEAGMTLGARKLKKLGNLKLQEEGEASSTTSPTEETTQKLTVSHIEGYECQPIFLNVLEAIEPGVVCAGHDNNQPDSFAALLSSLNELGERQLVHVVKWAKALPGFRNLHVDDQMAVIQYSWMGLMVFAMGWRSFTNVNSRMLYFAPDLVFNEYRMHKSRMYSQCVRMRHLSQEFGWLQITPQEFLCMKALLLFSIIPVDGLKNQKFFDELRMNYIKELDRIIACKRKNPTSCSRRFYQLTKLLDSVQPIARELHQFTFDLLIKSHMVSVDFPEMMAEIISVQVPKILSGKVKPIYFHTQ
Procedure: The protocol for the creation of a xenograft model and pharmacodynamic experiments using VCaP cells was as follows.
[Cell Culture] VCaP cells were resuspended at a density of 4 x 10^5/mL in a mixture of DMEM MEDIUM (Hyclone, SH30243.01), 10% FBS (Hyclone, SV30207.02), 1% Penicillin-streptomycin (Welgene, LS 202-02), and 1x Non-essential amino acid solution (100x) (Sigma, M7145-100mL). 50 mL of the cells were seeded into CELLBIND cell culture flasks (150 cm^2) (Corning, 3291) and cultured for 5 days.
[Xenotransplantation] The media was removed from the flask containing cultured VCaP cells and washed with 10 mL of PBS (Welgene, LB001-02). After removing the PBS, 2 mL of 1x 0.05% Trypsin-EDTA (Welgene, LS015-01) was added and treated in a cell incubator for 3 minutes. Then, 10 mL of media was added, pipetted, and placed in a 50 mL tube. The pellets were collected by centrifugation at 500 g for 5 minutes. The collected pellets were washed once more with 20 mL of PBS. The washed pellets were collected by centrifugation at 500 g for 5 minutes. The PBS was removed, and 500 µL of HBSS (Gibco, 14025092) was added and pipetted. After diluting 100-fold in HBSS and measuring the cell count, the concentration was calculated as 3 x 10^6/50 µL/mouse, diluted in HBSS, and stored in an ice bucket. An equal volume of matrigel (R&D system, 3432-005-01) was added to the stored cells, homogenized by pipetting, and then 100 µL per mouse was inoculated subcutaneously into the right flank of CB17/SCID mice.
[Measurement of tumor size and division into groups] After 2-3 weeks of inoculation with cancer cells, the transplanted cancer cells grew and were measured in size using a caliper. The measured tumor size was calculated as [long axis x short axis^2 x 0.5]. When the tumor size exceeded approximately […], the experimental animals were divided into groups based on the average tumor size and the concentration of the drug to be administered. The groups always included a group containing only the solvent (vehicle) without the drug.
[Drug Preparation and Administration] The drug was dissolved in a solvent and orally administered to each experimental animal in a volume of 200 µL (approximately 8 mL/kg). The solvent composition was 3% DMSO (Sigma, D8418), 10% Cremophor EL (Sigma, C5135), 20% PEG400 (Sigma, 06855-1KG), and 67% distilled water. The preparation method was as follows. Depending on the drug concentration (e.g., 10 or 30 mg/kg), each drug was weighed and dissolved in DMSO corresponding to 3% of the total solvent volume. […]
[Cancer Tissue Extraction] […] Changes in tumor size were measured during the prescribed administration period, and the mice were sacrificed 6 hours after the final administration. […]

First: N#Cc1ccc(N2CCC(C(=O)Nc3ccc(OC4CCN(CC5CCN(c6ccc(NC7CCC(=O)NC7=O)cc6F)CC5)CC4)cn3)CC2)cc1C(F)(F)F (stereo not shown) [Example 1, 1-(4-cyano-3-(trifluoromethyl)phenyl)-N-(5-((1-((1-(4-((2,6-dioxopiperidin-3-yl)amino)-2-fluorophenyl)piperidin-4-yl)methyl)piperidin-4-yl)oxy)pyridin-2-yl)piperidine-4-carboxamide]
Second: N#Cc1ccc(N2CCC(C(=O)Nc3ccc(OC4CCN(CC5CCN(c6ccc(N[C@H]7CCC(=O)NC7=O)cc6F)CC5)CC4)cn3)CC2)cc1C(F)(F)F [Example 2, (S)-1-(4-cyano-3-(trifluoromethyl)phenyl)-N-(5-((1-((1-(4-((2,6-dioxopiperidin-3-yl)amino)-2-fluorophenyl)piperidin-4-yl)methyl)piperidin-4-yl)oxy)pyridin-2-yl)piperidine-4-carboxamide]
The “AR degradation in tumor (%)” value of the first is lower: 86% for the first, 96% for the second.

Going from `N#Cc1ccc(N2CCC(C(=O)Nc3ccc(OC4CCN(CC5CCN(c6ccc(N[C@@H]7CCC(=O)NC7=O)cc6F)CC5)CC4)cn3)CC2)cc1C(F)(F)F` [Example 3, (R)-1-(4-cyano-3-(trifluoromethyl)phenyl)-N-(5-((1-((1-(4-((2,6-dioxopiperidin-3-yl)amino)-2-fluorophenyl)piperidin-4-yl)methyl)piperidin-4-yl)oxy)pyridin-2-yl)piperidine-4-carboxamide] to `N#Cc1ccc(N2CCC(C(=O)Nc3ccc(OC4CCN(CC5CCN(c6ccc(N[C@H]7CCC(=O)NC7=O)cc6F)CC5)CC4)cn3)CC2)cc1Cl` [Example 9, (S)-1-(3-chloro-4-cyanophenyl)-N-(5-((1-((1-(4-((2,6-dioxopiperidin-3-yl)amino)-2-fluorophenyl)piperidin-4-yl)methyl)piperidin-4-yl)oxy)pyridin-2-yl)piperidine-4-carboxamide], the “AR degradation in tumor (%)” value rises from 89% to 97%.
